These are literature values, as cited in US12376586B2, “Microcapsules comprising cinmethyln in the core and a polyurea derived from diphenylmethane diisocyanate or an oligomer thereof” (BASF Agro B.V., priority 2017, dated 2025).

For series [1] the following is noted: at 20° C.
For series [2] the following is noted: at 20° C. This is another data set of the same source.

Take `Cc1ccccc1CO[C@@H]1C[C@]2(C(C)C)CC[C@@]1(C)O2` (racemic) [Cinmethylin, (±)-2-exo-(2-methylbenzyloxy)-1-methyl-4-isopropyl-7-oxabicyclo[2.2.1]heptane]: in series [1], the vapor pressure is given as 8.1·10^−3 Pa. Also, the solubility in water in series [2] was 0,063 g·L^−1.
